{"source": "the supplement of paper PMC10307832", "experiment_in_all_cases": "relative viability (nuclei count vs DMSO), 5 days (fraction); higher = more cells survive", "key": {"[1]": {"tested_on": "NCI-H650", "outline": "(§1)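 Medians of duplicate plates are given as relative viability. That measure is the nuclei count in treated wells divided by the count in vehicle wells. Counts were taken on 4× images of lung cancer cell lines in 1536-well plates, 5 days after pin-tool dosing the day after seeding with one drug alone or a fixed anchor-drug dose plus five library-drug doses (not always all listed) in √10 steps.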"}, "[2]": {"tested_on": "CAL-12T", "outline": "as §1"}, "[3]": {"tested_on": "LCLC-103H", "outline": "as §1"}, "[4]": {"tested_on": "NCI-H596", "outline": "as §1"}, "[5]": {"tested_on": "EPLC-272H", "outline": "as §1"}, "[6]": {"tested_on": "NCI-H647", "outline": "as §1"}, "[7]": {"tested_on": "HOP-62", "outline": "as §1"}, "[8]": {"tested_on": "NCI-H2085", "outline": "as §1"}, "[9]": {"tested_on": "NCI-H1563", "outline": "as §1"}, "[10]": {"tested_on": "RERF-LC-KJ", "outline": "as §1"}, "[11]": {"tested_on": "NCI-H1993", "outline": "as §1"}, "[12]": {"tested_on": "COR-L 105", "outline": "as §1"}, "[13]": {"tested_on": "NCI-H2087", "outline": "as §1"}, "[14]": {"tested_on": "NCI-H1975", "outline": "as §1"}, "[15]": {"tested_on": "PC-14", "outline": "as §1"}, "[16]": {"tested_on": "NCI-H1651", "outline": "as §1"}, "[17]": {"tested_on": "NCI-H3122", "outline": "as §1"}, "[18]": {"tested_on": "NCI-H1395", "outline": "as §1"}, "[19]": {"tested_on": "LXF-289", "outline": "as §1"}, "[20]": {"tested_on": "NCI-H2023", "outline": "as §1"}, "[21]": {"tested_on": "COR-L23", "outline": "as §1"}, "[22]": {"tested_on": "SK-MES-1", "outline": "as §1"}, "[23]": {"tested_on": "A-427", "outline": "as §1"}, "[24]": {"tested_on": "NCI-H2170", "outline": "as §1"}}}
{"smiles": "CCCCCCCCCCCC1=C(O)C(=O)C=C(O)C1=O", "note": "[Embelin] + Cc1nc(NC(=O)N2CCC[C@H]2C(N)=O)sc1-c1ccnc(C(C)(C)C(F)(F)F)c1 [Alpelisib] (partner 2 µM)", "values": [{"measurement": "relative viability", "setting": "[1]; first compound 0.08 µM", "result": 1.14}, {"measurement": "relative viability", "setting": "[1]; first compound 0.8 µM", "result": 1.26}, {"measurement": "relative viability", "setting": "[1]; first compound 2.53 µM", "result": 1.02}, {"measurement": "relative viability", "setting": "[1]; first compound 8 µM", "result": 1.06}, {"measurement": "relative viability", "setting": "[2]; first compound 0.08 µM", "result": 1.24}, {"measurement": "relative viability", "setting": "[2]; first compound 0.8 µM", "result": 1.49}, {"measurement": "relative viability", "setting": "[2]; first compound 2.53 µM", "result": 1.31}, {"measurement": "relative viability", "setting": "[2]; first compound 8 µM", "result": 1.33}, {"measurement": "relative viability", "setting": "[3]; first compound 0.08 µM", "result": 1.07}, {"measurement": "relative viability", "setting": "[3]; first compound 0.8 µM", "result": 1.02}, {"measurement": "relative viability", "setting": "[3]; first compound 2.53 µM", "result": 1.02}, {"measurement": "relative viability", "setting": "[3]; first compound 8 µM", "result": 0.866}, {"measurement": "relative viability", "setting": "[4]; first compound 0.08 µM", "result": 0.487}, {"measurement": "relative viability", "setting": "[4]; first compound 0.8 µM", "result": 0.522}, {"measurement": "relative viability", "setting": "[4]; first compound 2.53 µM", "result": 0.482}, {"measurement": "relative viability", "setting": "[4]; first compound 8 µM", "result": 0.581}, {"measurement": "relative viability", "setting": "[5]; first compound 0.08 µM", "result": 0.963}, {"measurement": "relative viability", "setting": "[5]; first compound 0.8 µM", "result": 1.21}, {"measurement": "relative viability", "setting": "[5]; first compound 2.53 µM", "result": 0.908}, {"measurement": "relative viability", "setting": "[5]; first compound 8 µM", "result": 0.933}, {"measurement": "relative viability", "setting": "[6]; first compound 0.08 µM", "result": 1.29}, {"measurement": "relative viability", "setting": "[6]; first compound 0.8 µM", "result": 1.15}, {"measurement": "relative viability", "setting": "[6]; first compound 2.53 µM", "result": 1.45}, {"measurement": "relative viability", "setting": "[6]; first compound 8 µM", "result": 1.28}, {"measurement": "relative viability", "setting": "[7]; first compound 0.08 µM", "result": 1.04}, {"measurement": "relative viability", "setting": "[7]; first compound 0.8 µM", "result": 0.918}, {"measurement": "relative viability", "setting": "[7]; first compound 2.53 µM", "result": 1.41}, {"measurement": "relative viability", "setting": "[7]; first compound 8 µM", "result": 0.796}, {"measurement": "relative viability", "setting": "[8]; first compound 0.08 µM", "result": 0.944}, {"measurement": "relative viability", "setting": "[8]; first compound 0.8 µM", "result": 0.999}, {"measurement": "relative viability", "setting": "[8]; first compound 2.53 µM", "result": 1.11}, {"measurement": "relative viability", "setting": "[8]; first compound 8 µM", "result": 0.999}, {"measurement": "relative viability", "setting": "[9]; first compound 0.08 µM", "result": 0.845}, {"measurement": "relative viability", "setting": "[9]; first compound 0.8 µM", "result": 0.978}, {"measurement": "relative viability", "setting": "[9]; first compound 2.53 µM", "result": 0.856}, {"measurement": "relative viability", "setting": "[9]; first compound 8 µM", "result": 0.913}, {"measurement": "relative viability", "setting": "[10]; first compound 0.08 µM", "result": 0.856}, {"measurement": "relative viability", "setting": "[10]; first compound 0.8 µM", "result": 0.815}, {"measurement": "relative viability", "setting": "[10]; first compound 2.53 µM", "result": 1.07}, {"measurement": "relative viability", "setting": "[10]; first compound 8 µM", "result": 0.865}, {"measurement": "relative viability", "setting": "[11]; first compound 0.08 µM", "result": 0.753}, {"measurement": "relative viability", "setting": "[11]; first compound 0.8 µM", "result": 0.755}, {"measurement": "relative viability", "setting": "[11]; first compound 2.53 µM", "result": 0.649}, {"measurement": "relative viability", "setting": "[11]; first compound 8 µM", "result": 0.658}, {"measurement": "relative viability", "setting": "[12]; first compound 0.08 µM", "result": 0.951}, {"measurement": "relative viability", "setting": "[12]; first compound 0.8 µM", "result": 1.15}, {"measurement": "relative viability", "setting": "[12]; first compound 2.53 µM", "result": 0.968}, {"measurement": "relative viability", "setting": "[12]; first compound 8 µM", "result": 1.31}, {"measurement": "relative viability", "setting": "[13]; first compound 0.08 µM", "result": 0.988}, {"measurement": "relative viability", "setting": "[13]; first compound 0.8 µM", "result": 1.13}, {"measurement": "relative viability", "setting": "[13]; first compound 2.53 µM", "result": 1.03}, {"measurement": "relative viability", "setting": "[13]; first compound 8 µM", "result": 1.08}, {"measurement": "relative viability", "setting": "[14]; first compound 0.08 µM", "result": 0.663}, {"measurement": "relative viability", "setting": "[14]; first compound 0.8 µM", "result": 0.674}, {"measurement": "relative viability", "setting": "[14]; first compound 2.53 µM", "result": 0.696}, {"measurement": "relative viability", "setting": "[14]; first compound 8 µM", "result": 0.674}, {"measurement": "relative viability", "setting": "[15]; first compound 0.08 µM", "result": 0.9}, {"measurement": "relative viability", "setting": "[15]; first compound 0.8 µM", "result": 0.973}, {"measurement": "relative viability", "setting": "[15]; first compound 2.53 µM", "result": 0.976}, {"measurement": "relative viability", "setting": "[15]; first compound 8 µM", "result": 0.959}, {"measurement": "relative viability", "setting": "[16]; first compound 0.08 µM", "result": 0.939}, {"measurement": "relative viability", "setting": "[16]; first compound 0.8 µM", "result": 0.971}, {"measurement": "relative viability", "setting": "[16]; first compound 2.53 µM", "result": 0.945}, {"measurement": "relative viability", "setting": "[16]; first compound 8 µM", "result": 0.873}, {"measurement": "relative viability", "setting": "[17]; first compound 0.08 µM", "result": 0.746}, {"measurement": "relative viability", "setting": "[17]; first compound 0.8 µM", "result": 0.697}, {"measurement": "relative viability", "setting": "[17]; first compound 2.53 µM", "result": 0.728}, {"measurement": "relative viability", "setting": "[17]; first compound 8 µM", "result": 0.737}, {"measurement": "relative viability", "setting": "[18]; first compound 0.08 µM", "result": 1.06}, {"measurement": "relative viability", "setting": "[18]; first compound 0.8 µM", "result": 1.24}, {"measurement": "relative viability", "setting": "[18]; first compound 2.53 µM", "result": 0.982}, {"measurement": "relative viability", "setting": "[18]; first compound 8 µM", "result": 1.1}, {"measurement": "relative viability", "setting": "[19]; first compound 0.08 µM", "result": 1.03}, {"measurement": "relative viability", "setting": "[19]; first compound 0.8 µM", "result": 1.07}, {"measurement": "relative viability", "setting": "[19]; first compound 2.53 µM", "result": 1.08}, {"measurement": "relative viability", "setting": "[19]; first compound 8 µM", "result": 1.13}, {"measurement": "relative viability", "setting": "[20]; first compound 0.08 µM", "result": 0.708}, {"measurement": "relative viability", "setting": "[20]; first compound 0.8 µM", "result": 0.532}, {"measurement": "relative viability", "setting": "[20]; first compound 2.53 µM", "result": 0.651}, {"measurement": "relative viability", "setting": "[20]; first compound 8 µM", "result": 0.639}, {"measurement": "relative viability", "setting": "[21]; first compound 0.08 µM", "result": 0.872}, {"measurement": "relative viability", "setting": "[21]; first compound 0.8 µM", "result": 1.11}, {"measurement": "relative viability", "setting": "[21]; first compound 2.53 µM", "result": 0.874}, {"measurement": "relative viability", "setting": "[21]; first compound 8 µM", "result": 0.777}, {"measurement": "relative viability", "setting": "[22]; first compound 0.08 µM", "result": 0.902}, {"measurement": "relative viability", "setting": "[22]; first compound 0.8 µM", "result": 1.15}, {"measurement": "relative viability", "setting": "[22]; first compound 2.53 µM", "result": 0.96}, {"measurement": "relative viability", "setting": "[22]; first compound 8 µM", "result": 0.876}, {"measurement": "relative viability", "setting": "[23]; first compound 0.08 µM", "result": 1.1}, {"measurement": "relative viability", "setting": "[23]; first compound 0.8 µM", "result": 1.13}, {"measurement": "relative viability", "setting": "[23]; first compound 2.53 µM", "result": 1.12}, {"measurement": "relative viability", "setting": "[23]; first compound 8 µM", "result": 1.07}, {"measurement": "relative viability", "setting": "[24]; first compound 0.08 µM", "result": 0.856}, {"measurement": "relative viability", "setting": "[24]; first compound 0.8 µM", "result": 0.853}, {"measurement": "relative viability", "setting": "[24]; first compound 2.53 µM", "result": 0.92}, {"measurement": "relative viability", "setting": "[24]; first compound 8 µM", "result": 0.777}]}
